Laboratory results reported in patent US10730856B2, “Benzimidazole derivatives as EP4 ligands” (BAYER PHARMA AKTIENGESELLSCHAFT, priority 2013, dated 2020).

Each compound was assayed against human EP4 receptor (Homo sapiens (Human), UniProt P35408) (assay: hEP4 antagonism test (cAMP HTRF, PGE2-stimulated hEP4-expressing cells)). Conditions: PGE2-induced stimulation of cAMP production, cells expressing the EP4 receptor; read-out: inhibition of PGE2-induced cAMP production in cells expressing the EP4 receptor, IC50.
Format: cell-based
Source text: The antagonistic action can be determined by an antagonism assay (see Example 3.2.1 of the biological examples).
3. Detection of the Antagonism of the Human Prostaglandin E2 (Subtype ER4) Receptor Signal
Detection of the Antagonization of the hEP4 Signal
Binding of the agonist prostaglandin E2 (PGE2) to the EP4 subtype of the human hPGE2-R (hEP4-R) induces activation of membrane-bound adenylate cyclases and thus the formation of cAMP. In the presence of the phosphodiesterase inhibitor IBMX, this cAMP accumulates intracellularly and is, after cell lysis, employed in a competitive detection method. In this method, it competes with a fluorescently labelled cAMP (cAMP-d2) for binding to an anti-cAMP antibody labelled with an Eu cryptate. In the absence of cellular cAMP, a complex between the Eu-cryptate-labelled anti-cAMP antibody and the cAMP-d2 molecule is formed which, after excitation at 337 nm, allows a FRET-based (FRET=fluorescence resonance energy transfer) enery transfer to the cAMP-d2 tracer and results in a long-lasting fluorescence signal (emission at 665 and 620 nm). This signal is time-resolved, i.e. measured in a suitable measuring device once the background fluorescence has subsided (time resolved; TR-FRET). Additionally, well-ratio determination (emission 665 nm/emission 620 nm*10 000) allows variations in the individual measurements in the added amounts of detection reagents to be normalized.
Administration of prostglandin E2 and increase of intracellular cAMP reduces the FRET signal which increases again if the substance is antagonistically active.
3.2.1 Test for Antagonism (Figures Per Well of a 384-Well Plate):
4 μl of a suspension of hEP4-expressing cells (2500 cells/well) already comprising the cAMP-D2 tracer are added to the substance solutions (50 nl; 100% DMSO) initially charged in a test plate. After 20 minutes of pre-incubation at room temperature, 2 μl of a 3×PGE2 solution are added and the mixture is incubated in the presence of an EC80 concentration of the agonist (0.4 nM) for a further 60 min at room temperature (volume: ˜6 μl), and the whole reaction is then stopped by addition of 2 μl of lysis buffer (volume: ˜8 μl). After a further 20 min at room temperature, the cell lysate is measured in accordance with the instructions of the manufacturer in a measuring instrument suitable for TR-FRET (compare cAMP HTRF assay kit: Cisbio International 62AM6PEJ high range)

human EP4 receptor, sequence (P35408 whole entry): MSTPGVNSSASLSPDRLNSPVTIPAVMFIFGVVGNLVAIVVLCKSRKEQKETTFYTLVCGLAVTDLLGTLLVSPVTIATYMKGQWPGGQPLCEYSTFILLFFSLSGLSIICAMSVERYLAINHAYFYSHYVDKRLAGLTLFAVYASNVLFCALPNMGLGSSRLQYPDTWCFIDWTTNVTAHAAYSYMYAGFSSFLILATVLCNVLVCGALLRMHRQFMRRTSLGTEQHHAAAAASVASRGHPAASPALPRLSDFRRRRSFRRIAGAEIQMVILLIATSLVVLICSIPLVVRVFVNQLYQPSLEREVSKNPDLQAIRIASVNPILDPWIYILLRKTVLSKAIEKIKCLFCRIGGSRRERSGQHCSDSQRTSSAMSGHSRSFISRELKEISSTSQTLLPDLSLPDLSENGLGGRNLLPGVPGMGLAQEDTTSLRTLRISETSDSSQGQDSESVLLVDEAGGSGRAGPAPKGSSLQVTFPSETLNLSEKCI

SMILES | IC50
CCn1c2ccc(-c3nc4cc(C(=O)O)ccc4n3CCOC)cc2c2cc(C)cc(F)c21 [Example 10, 2-(9-Ethyl-8-fluoro-6-methyl-9H-carbazol-3-yl)-1-(2-methoxyethyl)-1H-benzimidazole-5-carboxylic Acid] | ~1.5 nM

Same assay, conditions: hEP4-expressing cells, PGE2 at EC80 (0.4 nM), cAMP TR-FRET; read-out: hEP4 antagonization IC50

SMILES | IC50
CCn1c2ccc(-c3nc4c(C)c(C(=O)O)ccc4n3CCOC)cc2c2cc(F)cc(C)c21 [Example 6, 2-(9-Ethyl-6-fluoro-8-methyl-9H-carbazol-3-yl)-1-(2-methoxyethyl)-4-methyl-1H-benzimidazole-5-carboxylic Acid] | 2 nM
CCOC(=O)c1ccc2c(c1)nc(-c1ccc3c(c1)c1cc(C)cc(F)c1n3CC)n2CCOC [Example 9, Ethyl 2-(9-ethyl-8-fluoro-6-methyl-9H-carbazol-3-yl)-1-(2-methoxyethyl)-1H-benzimidazole-5-carboxylate] | 62 nM
CCn1c2ccc(-c3nc4c(F)c(C(=O)O)ccc4n3CCOC)cc2c2cc(C)cc(F)c21 [Example 8, 2-(9-Ethyl-8-fluoro-6-methyl-9H-carbazol-3-yl)-4-fluoro-1-(2-methoxyethyl)-1H-benzimidazole-5-carboxylic Acid] | 1.9 nM
CCn1c2ccc(-c3nc4c(C)c(C(=O)O)ccc4n3CCOC)cc2c2cc(C)cc(F)c21 [Example 4, 2-(9-Ethyl-8-fluoro-6-methyl-9H-carbazol-3-yl)-1-(2-methoxyethyl)-4-methyl-1H-benzimidazole-5-carboxylic Acid] | 2.4 nM
CCn1c2ccc(Br)cc2c2cc(-c3nc4c(C)c(C(=O)OC)ccc4n3CCOC)ccc21 [Example 1, Methyl 2-(6-bromo-9-ethyl-9H-carbazol-3-yl)-1-(2-methoxyethyl)-4-methyl-1H-benzimidazole-5-carboxylate] | 32 nM
CCn1c2ccc(-c3nc4c(F)c(C(=O)O)ccc4n3CCOC)cc2c2cc(F)cc(C)c21 [Example 7, 2-(9-Ethyl-6-fluoro-8-methyl-9H-carbazol-3-yl)-4-fluoro-1-(2-methoxyethyl)-1H-benzimidazole-5-carboxylic Acid] | 2.4 nM
CCn1c2ccc(-c3nc4c(C)c(C(=O)OC)ccc4n3CCOC)cc2c2cc(C)cc(F)c21 [Example 3, Methyl 2-(9-ethyl-8-fluoro-6-methyl-9H-carbazol-3-yl)-1-(2-methoxyethyl)-4-methyl-1H-benzimidazole-5-carboxylate] | 40 nM
CCn1c2ccc(-c3nc4c(C)c(C(=O)OC)ccc4n3CCOC)cc2c2cc(C)cc(Cl)c21 [Example 11, Methyl 2-(8-chloro-9-ethyl-6-methyl-9H-carbazol-3-yl)-1-(2-methoxyethyl)-4-methyl-1H-benzimidazole-5-carboxylate] | 47 nM
CCn1c2ccc(Br)cc2c2cc(-c3nc4c(C)c(C(=O)O)ccc4n3CCOC)ccc21 [Example 2, 2-(6-Bromo-9-ethyl-9H-carbazol-3-yl)-1-(2-methoxyethyl)-4-methyl-1H-benzimidazole-5-carboxylic Acid] | 11 nM
CCn1c2ccc(-c3nc4c(C)c(C(=O)O)ccc4n3CCOC)cc2c2cc(C)cc(Cl)c21 [Example 12, 2-(8-Chloro-9-ethyl-6-methyl-9H-carbazol-3-yl)-1-(2-methoxyethyl)-4-methyl-1H-benzimidazole-5-carboxylic Acid] | 2.8 nM
CCn1c2ccc(-c3nc4cc(C(=O)O)ccc4n3CCOC)cc2c2cc(C)cc(F)c21 [Example 10, 2-(9-Ethyl-8-fluoro-6-methyl-9H-carbazol-3-yl)-1-(2-methoxyethyl)-1H-benzimidazole-5-carboxylic Acid] | 1.5 nM
